Experimental data published in ChEMBL document CHEMBL1765071, “Single photon emission computed tomography/positron emission tomography imaging and targeted radionuclide therapy of melanoma: new multimodal fluorinated and iodinated radiotracers” (J Med Chem, 2011).

What was measured:
[1] = tested on: Mus musculus; assay: Biodistribution in mouse B16F0 cells bearing C57B16 mouse tumor at 1.26 to 5.29 MBq, iv after 72 hrs; assay type: ADME, organism-based, Neoplasm; settings: in vivo
[2] = tested on: Mus musculus; assay: Biodistribution in mouse B16F0 cells bearing C57B16 mouse tumor at 1.26 to 5.29 MBq, iv after 24 hrs; assay type: ADME, organism-based, Neoplasm; settings: in vivo
[3] = tested on: Mus musculus; assay: Biodistribution in mouse B16F0 cells bearing C57B16 mouse tumor at 1.26 to 5.29 MBq, iv after 6 hrs; assay type: ADME, organism-based, Neoplasm; settings: in vivo
[4] = tested on: Mus musculus; assay: Biodistribution in mouse B16F0 cells bearing C57B16 mouse tumor at 1.26 to 5.29 MBq, iv after 3 hrs; assay type: ADME, organism-based, Neoplasm; settings: in vivo
[5] = tested on: Mus musculus; assay: Biodistribution in mouse B16F0 cells bearing C57B16 mouse tumor at 1.26 to 5.29 MBq, iv after 1 hr; assay type: ADME, organism-based, Neoplasm; settings: in vivo
[6] = tested on: Mus musculus; assay: Biodistribution in mouse B16F0 cells bearing C57B16 mouse tumor at 1.26 to 5.29 MBq, iv after 5 days; assay type: ADME, organism-based, Neoplasm; settings: in vivo, 120 h
[7] = tested on: Mus musculus; assay: Biodistribution in mouse B16F0 cells bearing C57B16 mouse tumor at 1.26 to 5.29 MBq, iv after 7 days; assay type: ADME, organism-based, Neoplasm; settings: in vivo, 168 h
[8] = tested on: Mus musculus; assay: Biodistribution in mouse B16F0 cells bearing C57B16 mouse tumor at 1.26 to 5.29 MBq, iv after 10 days; assay type: ADME, organism-based, Neoplasm; settings: in vivo, 240 h
[9] = tested on: Mus musculus; assay: Biodistribution in mouse B16F0 cells bearing C57B16 mouse tumor at 1.26 to 5.29 MBq, iv after 14 days; assay type: ADME, organism-based, Neoplasm; settings: in vivo, 336 h
[10] = tested on: Mus musculus; assay: Biodistribution in mouse B16F0 cells bearing C57B16 mouse tumor assessed per volume of tissue at 7.4 MBq, iv after 2 hrs; assay type: ADME, organism-based, Neoplasm; settings: in vivo
[11] = tested on: Mus musculus; assay: Biodistribution in mouse B16F10 cells bearing C57B16 mouse tumor assessed per volume of tissue at 7.4 MBq, iv after 2 hrs; assay type: ADME, organism-based, Neoplasm, B16-F10; settings: in vivo
[12] = tested on: Mus musculus; assay: Biodistribution in mouse B16F0 cells bearing C57B16 mouse tumor assessed per volume of tissue at 7.4 MBq, iv after 4 hrs; assay type: ADME, organism-based, Neoplasm; settings: in vivo
[13] = tested on: Mus musculus; assay: Biodistribution in mouse B16F10 cells bearing C57B16 mouse tumor assessed per volume of tissue at 7.4 MBq, iv after 4 hrs; assay type: ADME, organism-based, Neoplasm, B16-F10; settings: in vivo
[14] = tested on: Nucleic Acid; assay: Ratio of drug uptake in tumor to muscle in mouse B16F0 cells bearing C57B16 mouse at 2.7 MBq, iv after 1 hr; assay type: ADME, organism-based; settings: in vivo
[15] = tested on: Nucleic Acid; assay: Ratio of drug uptake in tumor to muscle in mouse B16F0 cells bearing C57B16 mouse at 2.7 MBq, iv after 3 hrs; assay type: ADME, organism-based; settings: in vivo
[16] = tested on: Mus musculus; assay: Biodistribution in mouse B16F0 cells bearing C57B16 mouse throat at 2.7 MBq, iv after 1 hr; assay type: ADME, organism-based; settings: in vivo
[17] = tested on: Mus musculus; assay: Biodistribution in mouse B16F0 cells bearing C57B16 mouse throat at 2.7 MBq, iv after 10 days; assay type: ADME, organism-based; settings: in vivo, 240 h
[18] = Biodistribution in mouse B16F0 cells bearing C57B16 mouse urine at 2.7 MBq, iv after up to 24 hrs; assay type: ADME, organism-based; settings: in vivo
[19] = Biodistribution in mouse B16F0 cells bearing C57B16 mouse feces at 2.7 MBq, iv after up to 24 hrs; assay type: ADME, organism-based; settings: in vivo
[20] = Biodistribution in mouse B16F0 cells bearing C57B16 mouse urine at 2.7 MBq, iv after up to 82 hrs; assay type: ADME, organism-based; settings: in vivo
[21] = Biodistribution in mouse B16F0 cells bearing C57B16 mouse feces at 2.7 MBq, iv after up to 72 hrs; assay type: ADME, organism-based; settings: in vivo
[22] = tested on: Mus musculus; assay: Biodistribution in mouse B16F0 cells bearing iv dosed C57B16 mouse tumor assessed as absorption dose; assay type: ADME, organism-based, Neoplasm; settings: in vivo
[23] = Antitumor activity against mouse B16F0 cells bearing C57B16 mouse assessed as inhibition of tumor growth doubling time at 18.5 MBq, iv administered 2 times on day 6 and 10; assay type: functional

Compound	Drug uptake [1]	Drug uptake [2]	Drug uptake [3]	Drug uptake [4]	Drug uptake [5]	Drug uptake [6]	Drug uptake [7]	Drug uptake [8]	Drug uptake [9]	other results
CCN(CCNC(=O)c1ccc2cc([125I])ccc2n1)CCOc1cccnc1F.Cl.Cl	3.2 % ID/g	6.3 % ID/g	9.7 % ID/g	10.8 % ID/g	10.7 % ID/g	2.3 % ID/g	1.1 % ID/g	0.4 % ID/g	0.2 % ID/g	
CCN(CCNC(=O)c1cnc2cc([125I])ccc2n1)CCNc1cccc(F)n1.Cl.Cl	5.7 % ID/g	8.6 % ID/g	12.5 % ID/g	13.7 % ID/g	13.1 % ID/g	2.6 % ID/g	1.5 % ID/g	0.8 % ID/g	0.4 % ID/g	
CCN(CC)Cc1ccnc(F)c1CNC(=O)c1cnc2cc([125I])ccc2n1.Cl.Cl	4.1 % ID/g	6.4 % ID/g	6.7 % ID/g	6.5 % ID/g	5.6 % ID/g	2.4 % ID/g	1.5 % ID/g	0.8 % ID/g	0.7 % ID/g	
CCN(CCCc1ccnc(F)c1)CCNC(=O)c1cnc2cc([125I])ccc2n1.Cl.Cl	9.5 % ID/g	16.3 % ID/g	14.1 % ID/g	9.3 % ID/g	9.1 % ID/g	5.1 % ID/g	2.5 % ID/g	1.4 % ID/g	0.7 % ID/g	
CCN(CCNC(=O)c1ccc2cc([125I])ccc2c1)CCOc1cccnc1F.Cl		5.9 % ID/g	7.4 % ID/g	8 % ID/g	7.9 % ID/g	2.8 % ID/g	2.1 % ID/g	0.2 % ID/g	0.6 % ID/g	
CCN(CCNC(=O)c1cccc2nc3cc([125I])ccc3nc12)CCOc1cccnc1F.Cl.Cl	5.8 % ID/g	13.8 % ID/g	13.8 % ID/g	12.3 % ID/g	11.4 % ID/g	3.7 % ID/g	2 % ID/g	1.2 % ID/g	0.7 % ID/g	
CCN(CC)CCNC(=O)c1cnc2cc([125I])ccc2n1.Cl.Cl	12.3 % ID/g	28 % ID/g	29.6 % ID/g	26.3 % ID/g	21.8 % ID/g	7.3 % ID/g	3.4 % ID/g	1.9 % ID/g		
CCN(CCNC(=O)c1cnc2cc(I)ccc2n1)CCOc1cccnc1[18F]										Drug uptake [10]: 8.3 %ID; Drug uptake [11]: 2.1 %ID; Drug uptake [12]: 0.6 %ID; Drug uptake [13]: 0.2 %ID
CCN(CCNC(=O)c1ccnc(F)c1)CCNC(=O)c1cnc2cc([125I])ccc2n1.Cl.Cl	9.6 % ID/g	12.1 % ID/g	12.1 % ID/g	8.8 % ID/g	9.6 % ID/g	5.1 % ID/g				
CCN(CCNC(=O)c1cnc2cc([125I])ccc2n1)CCOc1cccnc1F.Cl.Cl	10.3 % ID/g	18.2 % ID/g	18.8 % ID/g	20.2 % ID/g	12.7 % ID/g	5.2 % ID/g	3.2 % ID/g	1.7 % ID/g	0.6 % ID/g	Ratio [14]: 23; Ratio [15]: 37; Drug uptake [16]: 1.5 %ID; Drug uptake [17]: 0.1 %ID; Drug uptake [18]: 38.1 %ID; Drug uptake [19]: 36.1 %ID; Drug uptake [20]: 45.1 %ID; Drug uptake [21]: 18.7 %ID
CCN(CCNC(=O)c1cnc2cc([125I])ccc2n1)Cc1ccnc(F)c1.Cl.Cl	10 % ID/g	16 % ID/g	15.4 % ID/g	12 % ID/g	10.3 % ID/g	7.1 % ID/g		1.9 % ID/g	0.8 % ID/g	
CCN(CCNC(=O)c1cnc2cc([125I])ccc2n1)CCc1ccnc(F)c1.Cl.Cl	7.7 % ID/g	11.2 % ID/g	14.5 % ID/g	13.3 % ID/g	12.1 % ID/g	5.2 % ID/g	3 % ID/g	1.6 % ID/g	1.1 % ID/g	
CCN(CCNC(=O)c1cn2cc([125I])ccc2n1)CCOc1cccnc1F.Cl.Cl	8.6 % ID/g	15.6 % ID/g	13.4 % ID/g	13.1 % ID/g	13.2 % ID/g	6.4 % ID/g	3.9 % ID/g	2.3 % ID/g	1.6 % ID/g	
CCN(CC)CCNC(=O)c1cnc2cc([131I])ccc2n1.Cl.Cl										Drug uptake [22]: 1.71 Gy/MBq
CCN(CCNC(=O)c1cnc2cc([131I])ccc2n1)CCOc1cccnc1F.Cl.Cl										Drug uptake [22]: 1.12 Gy/MBq; Time [23]: 3.8 days
CCN(CCNC(=O)c1cnc2cc([125I])ccc2n1)c1cccc(F)n1	0.4 % ID/g	0.9 % ID/g	1.8 % ID/g	2.2 % ID/g	2 % ID/g	0.3 % ID/g	0.2 % ID/g			
CCN(CCNC(=O)c1ccc2cncc([125I])c2n1)CCOc1cccnc1F.Cl.Cl	3.3 % ID/g	5.2 % ID/g	5.3 % ID/g	5.5 % ID/g	5.6 % ID/g	1.6 % ID/g	1.1 % ID/g	0.5 % ID/g	0.4 % ID/g	
CCN(CCNC(=O)c1cccc2c(=O)c3cc([125I])ccc3[nH]c12)CCOc1cccnc1F.Cl	8.6 % ID/g	16 % ID/g	13 % ID/g	13 % ID/g	10.7 % ID/g	4.5 % ID/g	4.3 % ID/g	2.7 % ID/g	2 % ID/g	
